Data on two compounds can be found in patent US20250090514A1, “METHOD OF TREATING CANCER” (Laekna Limited, priority 2019, published 2025).

For series [1], the system named is aldosterone synthesis. Description: Example C: aldosterone level and hyperaldosteronism. Type of series: in vivo, human. The source says:
Hyperaldosteronism is a disorder with several serious clinical symptoms including hypertension, hypokalemia, fatigue, headache, muscle weakness and numbness.

The test system of series [2] is metastatic castration-resistant prostate cancer (mCRPC) patients. To be noted: cited from earlier work.
Series [3] in a line: Body weight and tolerability in the Mini-PDX study. Type of series: in vivo. As for the experimental part:
During the study, the care and use of animals were conducted in accordance with the regulations of the Association for Assessment and Accreditation of Laboratory Animal Care (AAALAC). After Mini-PDX device inoculation, the animals were checked daily for morbidity and mortality. At the time of routine monitoring, the animals were checked for any effects of treatments on normal behavior such as mobility, visual estimation of food and water consumption, body weight gain/loss, eye/hair matting and any other abnormal effect.
The body weight of mice was measured every day, and relative change of bodyweight was calculated for each mouse according to the following formula: RCBW(%)=(BWi−BW0)/BW0×100, BWi is the body weight after treatment on a given day, BW0 is the bodyweight on the first day of treatment.

Where two headings read alike, the source gives them in different places.

For the compound `Cc1ccncc1N1CCN(c2ccnc(Cl)c2)C1=O` [CFG920, 1-(2-chloro-pyridin-4-yl)-3-(4-methyl-pyridin-3-yl)-imidazolidin-2-one], in series [1] (baseline to Day 1 of Cycle 3, except Day 1 of Cycle 2 (similar to baseline), combination therapy), the “aldosterone level vs baseline” value was “lower than the baseline level”. Moreover, the “clinical symptoms of hyperaldosteronism” value in series [1] (during treatment with the combination therapy) is “did not cause any clinical symptoms of hyperaldosteronism”. The entries for the “unconfirmed rate of ≥50% PSA decline from baseline” value in series [2] (chemotherapy-naive mCRPC patients (32 of 124)) and in series [2] (mCRPC patients with previous chemotherapy (16 of 57)) were 26% and 28%, respectively.

As for `Cn1ncc(Cl)c1-c1cc(C(=O)N[C@H](CN)Cc2cccc(F)c2)sc1Cl` [afuresertib, N-{(1S)-2-amino-1-[(3-fluorophenyl)methyl]ethyl}-5-chloro-4-(4-chloro-1-methyl-1H-pyrazol-5-yl)-2-thiophenecarboxamide], the “tolerability in the animals” value in series [3] (afuresertib 75 mg/kg, CFG920 300 mg/kg) is recorded as “tolerated well”. For the same compound, the “Average RCBW (%)/Day 6” value in series [3] (relative change of body weight from day 0, afuresertib 75 mg/kg QD, CFG920 300 mg/kg BID) is −8.73%.
